Measured values taken from patent US11439707B2, “Hypocrellin derivative substituted both in a peri-position and in 2-position by amino, preparation method, and application thereof” (priority 2017, dated 2022).

Tests used:
[1] = absorption spectrum (maximum absorption wavelength, molar extinction coefficient); assay type: physicochemical
[2] = singlet oxygen efficiency test, reference rose bengal; assay type: physicochemical

SMILES | maximum absorption wavelength [1] | molar extinction coefficient [1] | singlet oxygen yield [2]
COc1c2c3c4c(c(NC5CCC(C(=O)O)CC5)c(=O)c5c(O)cc(OC)c(c6c(OC)cc(NC7CCC(C(=O)O)CC7)c(c1=O)c63)c54)C=C(C)C2C(C)=O (stereo not drawn) [HB-14d] | 623 nm | 27,000 M^−1cm^−1 | 24%
COCCOC(=O)C1CCCC(Nc2c(NC3CCCC(C(=O)OCCOC)C3)c3c(=O)cc(OC)c4c5c(OC)cc(=O)c6c(O)c(OC)c7c(c(c2C=C(C)C7C(C)=O)c34)c65)C1 (stereo not drawn) [HB-15a-PEG1] | 624 nm | 30,000 M^−1cm^−1 | 30%
COc1c(O)c2c(=O)cc(OC)c3c4c(OC)cc(=O)c5c(NC6CCCC(C(=O)O)C6)c(NC6CCCC(C(=O)O)C6)c6c(c(c1C(C(C)=O)C(C)=C6)c23)c54 (stereo not drawn) [HB-15a] | 625 nm | 27,000 M^−1cm^−1 | 25%
COCCOCCOCCOCCOCCOCCOC(=O)C1CCCC(Nc2c(O)c3c(=O)cc(OC)c4c5c(OC)cc(=O)c6c(NC7CCCC(C(=O)OCCOCCOCCOCCOCCOCCOC)C7)c(OC)c7c(c(c2C=C(C)C7C(C)=O)c34)c65)C1 (stereo not drawn) [HB-15b-PEG6] | 624 nm | 30,000 M^−1cm^−1 | 34%
COc1c(NC2CCCC(C(=O)O)C2)c2c(=O)cc(OC)c3c4c(OC)cc(=O)c5c(O)c(NC6CCCC(C(=O)O)C6)c6c(c(c1C(C(C)=O)C(C)=C6)c23)c54 (stereo not drawn) [HB-15b] | 623 nm | 27,000 M^−1cm^−1 | 24%
COCCOCCOCCOCCOCCOCCOCCOCCOCCOCCOCCOCCOC(=O)C1CCCC(Nc2c3c4c5c(c(OC)c(=O)c6c(O)cc(OC)c(c7c(OC)cc(NC8CCCC(C(=O)OCCOCCOCCOCCOCCOCCOCCOCCOCCOCCOCCOCCOC)C8)c(c2=O)c74)c65)C(C(C)=O)C(C)=C3)C1 (stereo not drawn) [HB-15c-PEG12] | 630 nm | 33,000 M^−1cm^−1 | 35%
COc1c2c3c4c(c(NC5CCCC(C(=O)O)C5)c(=O)c5c(NC6CCCC(C(=O)O)C6)cc(OC)c(c6c(OC)cc(O)c(c1=O)c63)c54)C=C(C)C2C(C)=O (stereo not drawn) [HB-15c] | 621 nm | 28,000 M^−1cm^−1 | 26%
COCCOCCOCCOCCOCCOCCOC(=O)C1CCCC(Nc2c3c4c5c(c(OC)c(=O)c6c(NC7CCCC(C(=O)OCCOCCOCCOCCOCCOCCOC)C7)cc(OC)c(c7c(OC)cc(O)c(c2=O)c74)c65)C(C(C)=O)C(C)=C3)C1 (stereo not drawn) [HB-15d-PEG6] | 630 nm | 32,500 M^−1cm^−1 | 32%
COc1c2c3c4c(c(NC5CCCC(C(=O)O)C5)c(=O)c5c(O)cc(OC)c(c6c(OC)cc(NC7CCCC(C(=O)O)C7)c(c1=O)c63)c54)C=C(C)C2C(C)=O (stereo not drawn) [HB-15d] | 623 nm | 27,000 M^−1cm^−1 | 24%
COCCOC(=O)C1CCCCC1Nc1c(NC2CCCCC2C(=O)OCCOC)c2c(=O)cc(OC)c3c4c(OC)cc(=O)c5c(O)c(OC)c6c(c(c1C=C(C)C6C(C)=O)c23)c54 (stereo not drawn) [HB-16a-PEG1] | 624 nm | 30,500 M^−1cm^−1 | 32%
COc1c(O)c2c(=O)cc(OC)c3c4c(OC)cc(=O)c5c(NC6CCCCC6C(=O)O)c(NC6CCCCC6C(=O)O)c6c(c(c1C(C(C)=O)C(C)=C6)c23)c54 (stereo not drawn) [HB-16a] | 620 nm | 25,500 M^−1cm^−1 | 25%
COCCOCCOCCOCCOCCOCCOC(=O)C1CCCCC1Nc1c(O)c2c(=O)cc(OC)c3c4c(OC)cc(=O)c5c(NC6CCCCC6C(=O)OCCOCCOCCOCCOCCOCCOC)c(OC)c6c(c(c1C=C(C)C6C(C)=O)c23)c54 (stereo not drawn) [HB-16b-PEG6] | 624 nm | 30,500 M^−1cm^−1 | 32%
COc1c(NC2CCCCC2C(=O)O)c2c(=O)cc(OC)c3c4c(OC)cc(=O)c5c(O)c(NC6CCCCC6C(=O)O)c6c(c(c1C(C(C)=O)C(C)=C6)c23)c54 (stereo not drawn) [HB-16b] | 625 nm | 26,000 M^−1cm^−1 | 26%
COc1c2c3c4c(c(NC5CCCCC5C(=O)O)c(=O)c5c(NC6CCCCC6C(=O)O)cc(OC)c(c6c(OC)cc(O)c(c1=O)c63)c54)C=C(C)C2C(C)=O (stereo not drawn) [HB-16c] | 628 nm | 28,000 M^−1cm^−1 | 28%
COCCOCCOCCOCCOCCOCCOC(=O)C1CCCCC1Nc1c2c3c4c(c(OC)c(=O)c5c(NC6CCCCC6C(=O)OCCOCCOCCOCCOCCOCCOC)cc(OC)c(c6c(OC)cc(O)c(c1=O)c63)c54)C(C(C)=O)C(C)=C2 (stereo not drawn) [HB-16d-PEG6] | 628 nm | 32,000 M^−1cm^−1 | 33%
COc1c2c3c4c(c(NC5CCCCC5C(=O)O)c(=O)c5c(O)cc(OC)c(c6c(OC)cc(NC7CCCCC7C(=O)O)c(c1=O)c63)c54)C=C(C)C2C(C)=O (stereo not drawn) [HB-16d] | 625 nm | 26,500 M^−1cm^−1 | 26%

SMILES | maximum absorption wavelength [1] | molar extinction coefficient [1] | singlet oxygen yield [2]
COCCOCCC(=O)OC1CCC(Nc2c(NC3CCC(OC(=O)CCOCCOC)CC3)c3c(=O)cc(OC)c4c5c(OC)cc(=O)c6c(O)c(OC)c7c(c(c2C=C(C)C7C(C)=O)c34)c65)CC1 (stereo not drawn) [HB-17a-PEG1] | 622 nm | 30,500 M^−1cm^−1 | 30%
COc1c(O)c2c(=O)cc(OC)c3c4c(OC)cc(=O)c5c(NC6CCC(O)CC6)c(NC6CCC(O)CC6)c6c(c(c1C(C(C)=O)C(C)=C6)c23)c54 (stereo not drawn) [HB-17a] | 617 nm | 25,000 M^−1cm^−1 | 22%
COc1c(NC2CCC(O)CC2)c2c(=O)cc(OC)c3c4c(OC)cc(=O)c5c(O)c(NC6CCC(O)CC6)c6c(c(c1C(C(C)=O)C(C)=C6)c23)c54 (stereo not drawn) [HB-17b] | 620 nm | 25,500 M^−1cm^−1 | 20%
COCCOCCOCCOCCOCCOCCOCCOCCOCCOCCOCCOCCOCCC(=O)OC1CCC(Nc2c3c4c5c(c(OC)c(=O)c6c(O)cc(OC)c(c7c(OC)cc(NC8CCC(OC(=O)CCOCCOCCOCCOCCOCCOCCOCCOCCOCCOCCOCCOCCOC)CC8)c(c2=O)c74)c65)C(C(C)=O)C(C)=C3)CC1 (stereo not drawn) [HB-17c-PEG12] | 632 nm | 33,500 M^−1cm^−1 | 38%
COc1c2c3c4c(c(NC5CCC(O)CC5)c(=O)c5c(NC6CCC(O)CC6)cc(OC)c(c6c(OC)cc(O)c(c1=O)c63)c54)C=C(C)C2C(C)=O (stereo not drawn) [HB-17c] | 622 nm | 26,000 M^−1cm^−1 | 23%
COc1c2c3c4c(c(NC5CCC(O)CC5)c(=O)c5c(O)cc(OC)c(c6c(OC)cc(NC7CCC(O)CC7)c(c1=O)c63)c54)C=C(C)C2C(C)=O (stereo not drawn) [HB-17d] | 624 nm | 25,000 M^−1cm^−1 | 22%
COc1c(O)c2c(=O)cc(OC)c3c4c(OC)cc(=O)c5c(NCCC6CCC(O)CC6)c(NCCC6CCC(O)CC6)c6c(c(c1C(C(C)=O)C(C)=C6)c23)c54 (stereo not drawn) [HB-18a] | 614 nm | 24,000 M^−1cm^−1 | 20%
COc1c(NCCC2CCC(O)CC2)c2c(=O)cc(OC)c3c4c(OC)cc(=O)c5c(O)c(NCCC6CCC(O)CC6)c6c(c(c1C(C(C)=O)C(C)=C6)c23)c54 (stereo not drawn) [HB-18b] | 621 nm | 24,500 M^−1cm^−1 | 21%
COc1c2c3c4c(c(NCCC5CCC(O)CC5)c(=O)c5c(NCCC6CCC(O)CC6)cc(OC)c(c6c(OC)cc(O)c(c1=O)c63)c54)C=C(C)C2C(C)=O (stereo not drawn) [HB-18c] | 624 nm | 23,500 M^−1cm^−1 | 23%
COCCOC(=O)C1CCC(Nc2c(NC3CCC(C(=O)OCCOC)C3)c3c(=O)cc(OC)c4c5c(OC)cc(=O)c6c(O)c(OC)c7c(c(c2C=C(C)C7C(C)=O)c34)c65)C1 (stereo not drawn) [HB-19a-PEG1] | 624 nm | 30,500 M^−1cm^−1 | 32%
COc1c(O)c2c(=O)cc(OC)c3c4c(OC)cc(=O)c5c(NC6CCC(C(=O)O)C6)c(NC6CCC(C(=O)O)C6)c6c(c(c1C(C(C)=O)C(C)=C6)c23)c54 (stereo not drawn) [HB-19a] | 621 nm | 25,500 M^−1cm^−1 | 21%
COc1c(NC2CCC(C(=O)O)C2)c2c(=O)cc(OC)c3c4c(OC)cc(=O)c5c(O)c(NC6CCC(C(=O)O)C6)c6c(c(c1C(C(C)=O)C(C)=C6)c23)c54 (stereo not drawn) [HB-19b] | 620 nm | 25,000 M^−1cm^−1 | 22%
COCCOCCOCCOCCOCCOCCOCCOCCOCCOCCOCCOCCOC(=O)C1CCC(Nc2c3c4c5c(c(OC)c(=O)c6c(O)cc(OC)c(c7c(OC)cc(NC8CCC(C(=O)OCCOCCOCCOCCOCCOCCOCCOCCOCCOCCOCCOCCOC)C8)c(c2=O)c74)c65)C(C(C)=O)C(C)=C3)C1 (stereo not drawn) [HB-19c-PEG12] | 636 nm | 33,500 M^−1cm^−1 | 38%
COc1c2c3c4c(c(NC5CCC(C(=O)O)C5)c(=O)c5c(NC6CCC(C(=O)O)C6)cc(OC)c(c6c(OC)cc(O)c(c1=O)c63)c54)C=C(C)C2C(C)=O (stereo not drawn) [HB-19c] | 622 nm | 25,500 M^−1cm^−1 | 24%
COCCOCCOCCOCCOCCOCCOC(=O)C1CCC(Nc2c3c4c5c(c(OC)c(=O)c6c(NC7CCC(C(=O)OCCOCCOCCOCCOCCOCCOC)C7)cc(OC)c(c7c(OC)cc(O)c(c2=O)c74)c65)C(C(C)=O)C(C)=C3)C1 (stereo not drawn) [HB-19d-PEG6] | 636 nm | 31,000 M^−1cm^−1 | 32%
COc1c2c3c4c(c(NC5CCC(C(=O)O)C5)c(=O)c5c(O)cc(OC)c(c6c(OC)cc(NC7CCC(C(=O)O)C7)c(c1=O)c63)c54)C=C(C)C2C(C)=O (stereo not drawn) [HB-19d] | 625 nm | 24,000 M^−1cm^−1 | 20%
